Data on 23 compounds can be found in patent publication US11000511B2, “Chemical compounds as antibiotics” (priority 2017, dated 2021).

SMILES strings stand for the structures.

Experiment [1] deals with T1, purified LasB protein from P. aeruginosa (Pseudomonas aeruginosa, UniProt P14756).
T1 construct: purchased Merck or Charles River Laboratories
The experiment is described as follows: Fluorometric assay to determine Ki (Assay 1). Type of experiment: biochemical. Particulars: Ki (μM) Assay 1, purified LasB, substrate Abz-Ala-Gly-Leu-Ala-p-Nitro-Benzyl-Amide 250 μM, Ki calculated from IC50; inhibitor 0.006 to 200 μM. The method, then:
(§1) Experiments were therefore conducted (1) to measure the potency of inhibition of compounds of the invention against purified Pseudomonas aeruginosa LasB enzyme and also experiments were conducted (2) to measure the ability of compounds of the invention to inhibit LasB-catalysed elastin degradation. The first assay uses a commercial fluorescent synthetic peptide and purified LasB enzyme. The LasB hydrolysis kinetics are measured allowing the determination of the IC50 and Ki of the inhibitors; the second is a more physiological assay using dialysed Pseudomonas aeruginosa supernatant as source of enzyme, plus its natural substrate Elastin. It is an “end point assay” that determines the percentage of LasB inhibition by each compound for one particular time point and inhibitor concentration. Technical details are described below:
This assay uses commercially available substrate (Abz-Ala-Gly-Leu-Ala-p-Nitro-Benzyl-Amide (Ex: 340 nm, Em: 415 nm) from Peptide International) and purified LasB protein from P. aeruginosa (provided by Merck or Charles River Laboratories). It is performed to determine LasB elastase activity and assess compound inhibition in 96-well plate format. Some compounds of Formula (I) were assessed using the method of Assay 1 (described below). Other compounds of Formula (I) were assessed using the alternative but equivalent method of Assay 2 (described below).
Method: 10 to 140 ng/ml purified LasB is incubated with 250 μM Abz-Ala-Gly-Leu-Ala-p-Nitro-Benzyl-Amide in 50 mM Tris-HCl pH 7.4, 2.5 mM CaCl2), 0.01% of Triton X100 at 37° C. LasB activity (corresponding to fluorescence emission induced by substrate hydrolysis) is measured over 30 min at 37° C. with a fluorescence plate reader such as the Perkin Elmer Envision or similar. Different range of inhibitor concentrations are routinely assessed depending of inhibitor potency from 0.006 to 200 μM (Assay 1; 2-fold dilutions series) or from 0.0016 to 200 μM (Assay 2; 2-fold dilutions series) in order to determine IC50.
The equation used to calculate the Ki from IC50 is: Ki=IC50/(1+([S]/Km)) where [S]=250 μM and Km=214 μM.

The target of experiment [2] is T2, LasB elastase activity in dialysed supernatant from P. aeruginosa strain PA01 (Pseudomonas aeruginosa, UniProt P14756).
T2 construct: uses as source of enzyme dialysed supernatant from P. aeruginosa; endogenous in cells; host or cells: P. aeruginosa strain PA01 culture supernatant, filtered and dialysed
T2 sequence (P14756 198-498): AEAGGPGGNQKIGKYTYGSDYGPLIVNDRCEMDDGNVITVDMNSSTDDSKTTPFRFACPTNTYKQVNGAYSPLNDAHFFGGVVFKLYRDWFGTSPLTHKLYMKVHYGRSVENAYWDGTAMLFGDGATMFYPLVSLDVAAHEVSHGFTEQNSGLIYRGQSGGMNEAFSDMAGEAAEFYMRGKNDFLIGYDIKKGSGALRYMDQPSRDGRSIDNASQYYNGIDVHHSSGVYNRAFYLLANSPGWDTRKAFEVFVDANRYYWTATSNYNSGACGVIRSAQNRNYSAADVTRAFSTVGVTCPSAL
Kind of experiment: Elastin Congo Red assay to determine % inhibition (Assay 1). Type of experiment: biochemical. Particulars: read-out: Elastin hydrolysis % inhibition @ 50/25 μM inhibitor concentration Assay 1. The method, then:
as §1
The Elastin assay uses as source of enzyme dialysed supernatant from P. aeruginosa and the elastin congo red as substrate. The natural LasB substrate, elastin, is complexed with the congo red dye (Elastin Congo Red, ECR). The elastolysis activity from the culture supernatant will degrade elastin and release the congo red dye into the supernatant. This red dye release can be measured with a spectrophotometer. Some compounds of Formula (I) were assessed using the method of Assay 1 (described below). Other compounds of Formula (I) were assessed using the alternative but equivalent method of Assay 2 (described below).
Method (Assay 1): To determine LasB elastase activity and assess compound inhibition, an overnight culture of P. aeruginosa strain PA01 is diluted thousand-fold in LB medium. This diluted solution is incubated during 19 hours in a shaking incubator. Culture supernatants are recovered by centrifugation and filtrated through a […] filter. These supernatants are dialysed (filtration molecules <20 kDa) into a 50 mM Tris pH 7.4, 2.5 mM CaCl2 solution at 4° C. under agitation for 24 hours. Supernatant dialysed is then mixed volume/volume with the ECR suspension (20 mg/mL of ECR in 100 mM Tris buffer supplemented with 1 mM CaCl2) supplemented with TritonX 100 (final concentration of 0.01%) in presence of different concentrations of compound (routinely 50 and 25 μM). The mixed reaction is then incubated for 24 hours in a 37° shaking incubator. As a negative control, the mixed supernatant is replaced by Tris solution (50 mM Tris pH 7.4, 2.5 mM CaCl2). The reaction supernatant is recovered by centrifugation and the release of congo red is measured by its absorbance at OD520. Percentage inhibition is determined using the following equation: (OD520 value of DMSO SN−OD520 value of LB)−(OD520 value of Compound SN−OD520 value of LB)/(OD520 value of DMSO SN−OD520 value of LB)×100.

T1 sequence (P14756 198-498): as above

For `O=C(O)CC1(C(=O)NCCc2c[nH]c3ccccc23)Cc2ccccc2C1` [Example 14, 2-[2-[2-(1H-indol-3-yl)ethylcarbamoyl]indan-2-yl]acetic acid], the Ki (commonly a measure of affinity in units of concentration, obtained from inhibition or displacement) in experiment [1] was below 0.3 µM. Besides, the inhibition at 50 µM in experiment [2] fell in the range of 30 to 60%.
For the compound `NCCC1CN(c2ccc3nc(CNC(=O)C4(CC(=O)O)Cc5ccccc5C4)sc3c2)C1` [Example 70, 2-[2-[[6-[3-(2-aminoethyl)azetidin-1-yl]-1,3-benzothiazol-2-yl]methylcarbamoyl]indan-2-yl]acetic acid], in experiment [1], the Ki was below 0.3 µM. Also, in experiment [2], the inhibition at 50 µM was above 60%.
Taken in the same sequence, the figures for `C[N+](C)(C)CCOc1ccc2nc(CNC(=O)C3(CC(=O)[O-])Cc4ccccc4C3)sc2c1` [Example 111, 2-[2-[[6-[2-(trimethylammonio)ethoxy]-1,3-benzothiazol-2-yl]methylcarbamoyl]indan-2-yl]acetate] were 0.3 to 2 µM and 30 to 60%.
The corresponding values for `NCC1CN(c2ccc3nc(CNC(=O)C4(CC(=O)O)Cc5ccccc5C4)sc3c2)C1` [Example 99, 2-[2-[[6-[3-(aminomethyl)azetidin-1-yl]-1,3-benzothiazol-2-yl]methylcarbamoyl]indan-2-yl]acetic acid] are below 0.3 µM and above 60%.
The corresponding values for `N[C@H]1CCN(c2ccc3sc(CNC(=O)C4(CC(=O)O)Cc5ccccc5C4)nc3c2)C1` [Example 103, 2-[2-[[5-[(3 S)-3-aminopyrrolidin-1-yl]-1,3-benzothiazol-2-yl]methylcarbamoyl]indan-2-yl]acetic acid] are 0.3 to 2 µM and above 60%.
Take `C[N+](C)(C)C1CN(c2ccc3nc(CNC(=O)C4(CC(=O)[O-])Cc5ccccc5C4)sc3c2)C1` [Example 68, 2-[2-[[6-[3-(trimethylammonio)azetidin-1-yl]-1,3-benzothiazol-2-yl]methylcarbamoyl]indan-2-yl]acetate]: the Ki in experiment [1] was 0.3 to 2 µM. Besides, the inhibition at 50 µM in experiment [2] lay in the range of 30 to 60%.
The corresponding values for `O=C(O)CC1(C(=O)NCc2cc3ccccc3o2)Cc2ccccc2C1` [Example 5, 2-(2-{[(1-Benzofuran-2-yl)methyl]carbamoyl}-2,3-dihydro-1H-inden-2-yl)acetic acid] are 0.3 to 2 µM and 30 to 60%.
For the compound `O=C(O)CC1(C(=O)N[C@@H](Cc2c[nH]c3ccccc23)C(=O)O)Cc2ccccc2C1` [Example 50, (2-(carboxymethyl)-2,3-dihydro-1H-indene-2-carbonyl)-L-tryptophan], the Ki in experiment [1] is below 0.3 µM. In experiment [2], the inhibition at 50 µM is above 60%.
For the compound `NC(=O)[C@H](Cc1c[nH]c2ccccc12)NC(=O)C1(CC(=O)O)Cc2ccccc2C1` [Example 52, (S)-2-(2-((1-amino-3-(1H-indol-3-yl)-1-oxopropan-2-yl)carbamoyl)-2,3-dihydro-1H-inden-2-yl)acetic acid], in experiment [1], the Ki was below 0.3 µM. Moreover, the inhibition at 50 µM in experiment [2] was above 60%.
Taken in the same sequence, the figures for `NC(=O)[C@H](Cc1ccc(O)cc1)NC(=O)C1(CC(=O)O)Cc2ccccc2C1` [Example 48, (S)-2-(2-((1-amino-3-(4-hydroxyphenyl)-1-oxopropan-2-yl)carbamoyl)-2,3-dihydro-1H-inden-2-yl)acetic acid] were 2 to 10 µM and 30 to 60%.
As to `C[N+](C)(C)Cc1ccc2nc(CNC(=O)C3(CC(=O)[O-])Cc4ccccc4C3)sc2c1` [Example 82, 2-[2-[[6-[(trimethylammonio)methyl]-1,3-benzothiazol-2-yl]methylcarbamoyl]indan-2-yl]acetate], in experiment [1], the Ki is 2 to 10 µM.
In the case of `O=C(O)CC1(C(=O)NCc2nc3ccccc3s2)Cc2cc(Cl)c(Cl)cc2C1` [Example 121, 2-(2-((benzo[d]thiazol-2-ylmethyl)carbamoyl)-5,6-dichloro-2,3-dihydro-1H-inden-2-yl)acetic acid], the Ki in experiment [1] is 0.3 to 2 µM.
For `C[N+](C)(C)Cc1ccc2sc(CNC(=O)C3(CC(=O)[O-])Cc4ccccc4C3)nc2c1` [Example 85, 2-[2-[[5-[(trimethylammonio)methyl]-1,3-benzothiazol-2-yl]methylcarbamoyl]indan-2-yl]acetate], the Ki in experiment [1] was 0.3 to 2 µM.
As to `NC1CC(Oc2ccc3nc(CNC(=O)C4(CC(=O)O)Cc5ccccc5C4)sc3c2)C1` (mixture of isomers) [Example 78, 2-[2-[[6-(3-aminocyclobutoxy)-1,3-benzothiazol-2-yl]methylcarbamoyl]indan-2-yl]acetic acid], the Ki in experiment [1] is 0.3 to 2 µM.
The same measure, in the same setting: then `O=C(O)CC1(C(=O)NCCc2nc3ccccc3o2)Cc2ccccc2C1` [Example 31, 2-[2-[2-(1,3-benzoxazol-2-yl)ethylcarbamoyl]indan-2-yl]acetic acid], with 2 to 10 µM; and `CN(C)Cc1ccc2nc(CNC(=O)C3(CC(=O)O)Cc4ccccc4C3)sc2c1` [Example 81, 2-[2-[[6-[(dimethylamino)methyl]-1,3-benzothiazol-2-yl]methylcarbamoyl]indan-2-yl]acetic acid], with 2 to 10 µM.
`CC(C)(N)c1nnc([C@H](Cc2c[nH]c3ccccc23)NC(=O)C2(CC(=O)O)Cc3ccccc3C2)o1` [Example 119, (S)-2-(2-((1-(5-(2-aminopropan-2-yl)-1,3,4-oxadiazol-2-yl)-2-(1H-indol-3-yl)ethyl)carbamoyl)-2,3-dihydro-1H-inden-2-yl)acetic acid]: in experiment [1], the Ki is 0.3 to 2 µM.
Regarding `CN(C)C1CC(Oc2ccc3nc(CNC(=O)C4(CC(=O)O)Cc5ccccc5C4)sc3c2)C1` (stereo not drawn) [Example 79, 2-[2-[[6-[3-(dimethylamino)cyclobutoxy]-1,3-benzothiazol-2-yl]methylcarbamoyl]indan-2-yl]acetic acid], the Ki in experiment [1] was 0.3 to 2 µM.
Turning to `NCCc1ccc2sc(CNC(=O)C3(CC(=O)O)Cc4ccccc4C3)nc2c1` [Example 83, 2-[2-[[5-(2-aminoethyl)-1,3-benzothiazol-2-yl]methylcarbamoyl]indan-2-yl]acetic acid], in experiment [1], the Ki is 0.3 to 2 µM.
Still for that read-out and setting: then `C[N+](C)(C)CCNc1ccc2sc(CNC(=O)C3(CC(=O)[O-])Cc4ccccc4C3)nc2c1` [Example 77, 2-[2-[[5-[2-(trimethylammonio)ethylamino]-1,3-benzothiazol-2-yl]methylcarbamoyl]indan-2-yl]acetate], with 0.3 to 2 µM.
With `CN(C)CCc1ccc2sc(CNC(=O)C3(CC(=O)O)Cc4ccccc4C3)nc2c1` [Example 97, 2-[2-[[5-[2-(dimethylamino)ethyl]-1,3-benzothiazol-2-yl]methylcarbamoyl]indan-2-yl]acetic acid], the Ki in experiment [1] is 0.3 to 2 µM.
Still for that read-out and setting: the result for `CN(C)Cc1ccc2sc(CNC(=O)C3(CC(=O)O)Cc4ccccc4C3)nc2c1` [Example 84, 2-[2-[[5-[(dimethylamino)methyl]-1,3-benzothiazol-2-yl]methylcarbamoyl]indan-2-yl]acetic acid] reads 0.3 to 2 µM.
Still for that read-out and setting: the result for `C[N+](C)(C)CCc1ccc2sc(CNC(=O)C3(CC(=O)[O-])Cc4ccccc4C3)nc2c1` [Example 98, 2-[2-[[5-[2-(trimethylammonio)ethyl]-1,3-benzothiazol-2-yl]methylcarbamoyl]indan-2-yl]acetate] reads 0.3 to 2 µM.
